Results on 4 compounds are retold here after ChEMBL document CHEMBL3259776, “Discovery and optimization of indazoles as potent and selective interleukin-2 inducible T cell kinase (ITK) inhibitors” (Bioorg Med Chem Lett, 2014).

The target of series [1] is T1, Tyrosine-protein kinase ITK/TSK (Homo sapiens, UniProt Q08881).
T1 sequence (Q08881 whole entry): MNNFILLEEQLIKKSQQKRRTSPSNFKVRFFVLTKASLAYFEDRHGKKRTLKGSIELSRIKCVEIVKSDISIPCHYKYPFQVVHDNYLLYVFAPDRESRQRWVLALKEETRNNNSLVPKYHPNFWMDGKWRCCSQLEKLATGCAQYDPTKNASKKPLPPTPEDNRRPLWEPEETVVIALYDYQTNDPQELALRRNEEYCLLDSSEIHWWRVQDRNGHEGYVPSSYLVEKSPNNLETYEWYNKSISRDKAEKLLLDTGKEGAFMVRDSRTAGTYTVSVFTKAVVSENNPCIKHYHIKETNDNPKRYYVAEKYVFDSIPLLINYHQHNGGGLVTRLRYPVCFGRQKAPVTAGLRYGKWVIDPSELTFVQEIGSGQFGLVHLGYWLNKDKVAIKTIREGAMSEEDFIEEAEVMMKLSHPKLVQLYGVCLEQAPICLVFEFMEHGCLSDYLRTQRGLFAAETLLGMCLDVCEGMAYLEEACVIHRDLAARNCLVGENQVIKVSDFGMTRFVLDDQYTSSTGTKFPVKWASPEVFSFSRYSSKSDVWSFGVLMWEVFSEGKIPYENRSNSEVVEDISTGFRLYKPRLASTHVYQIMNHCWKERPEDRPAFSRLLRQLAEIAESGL

Series [2] is described as follows: Oral bioavailability in rat at 5 mg/kg. The series is classed as ADME, organism-based. The settings on record: in vivo.
Series [3] in a line: Clearance in rat at 1 mg/kg, iv. It counts as ADME, organism-based. Details: dose 1 mg/kg, route intravenous. The settings on record: in vivo.
The nature of series [4]: AUC in rat at 1 mg/kg, iv. It counts as ADME, organism-based. Also on record: dose 1 mg/kg, route intravenous. The settings on record: plasma.
Series [5] is described as follows: Half life in rat at 1 mg/kg, iv. Details: dose 1 mg/kg, route intravenous. The settings on record: in vivo. The series is classed as ADME, organism-based.
Series [6] can be described thus: Half life in rat at 5 mg/kg, po. It counts as ADME, organism-based. Details: dose 5 mg/kg, route oral. The settings on record: in vivo.
A short description of series [7]: Lipophilicity, log D of the compound at pH 7.4. The settings on record: buffer.

As a reminder, the Ki is the equilibrium dissociation constant of an inhibitor or competing ligand from its target. Low values mean higher affinity, high ones lower affinity. In series [1], `O=C(Nc1ncc(Cc2ccccc2)s1)c1n[nH]c2ccccc12` gave a Ki of over 4 nM.
`O=C(Nc1ncc(Cc2ccccc2)o1)c1n[nH]c2ccccc12` gave a Ki in series [1] of over 4 nM.
The term bioavailability denotes the share of a dose that reaches the circulation, judged against a reference dose that is usually intravenous. The low end stands for little systemic uptake, the high end for much systemic uptake. By clearance is commonly meant the volume of plasma or blood freed of the substance per unit of time. In general, AUC refers to concentration integrated over time. High values mean more exposure, low ones less exposure. Broadly, the half-life is the time in which the quantity being followed falls by half. In series [2], `CN(C)CC[C@@H](c1ccccc1)n1cc(NC(=O)c2n[nH]c3cc(-c4cn[nH]c4)ccc23)cn1` registered a bioavailability of 0%. This compound showed a clearance in series [3] of 44 mL/min/kg. For the same compound, in series [4], the AUC amounted to 0.837 µM·h. The compound also showed a half-life in series [5] of 5.7 h.
Broadly, the logD is lipophilicity at a set pH, counting ionised and neutral species. Higher therefore signals a more lipophilic compound. With `CC(C)(O)[C@@H](c1ccccc1)n1cc(NC(=O)c2n[nH]c3cc(-c4cn[nH]c4)ccc23)cn1`, the bioavailability in series [2] stood at 9%. In addition, the clearance in series [3] was 11 mL/min/kg. The figures for the half-life in series [6] and in series [5] were 2.6 h and 1.8 h, respectively. Also, in series [4], the AUC worked out at 2.5 µM·h. Also, the logD in series [7] was determined as 3.4.
